Assay results reported in article PMC12525784, “Novel Azaborine-Based Inhibitors of Histone Deacetylases (HDACs)” (Molecules, 2025).
Blank lines part the entries; values can stand above or below the compound they belong to.

Columns and labels:
Format in all cases: biochemical
[1] = biological target: T1, HDAC8 (Homo sapiens, UniProt Q9BY41); test: HDAC8 enzymatic activity assay (dose-response, Boc-Lys(Tfa)-AMC); conditions: 10 nM HDAC8, 20 µM Boc-Lys(Tfa)-AMC; triplicate, mean ± SD
T1 construct: made in house
T1 sequence (Q9BY41 1-377): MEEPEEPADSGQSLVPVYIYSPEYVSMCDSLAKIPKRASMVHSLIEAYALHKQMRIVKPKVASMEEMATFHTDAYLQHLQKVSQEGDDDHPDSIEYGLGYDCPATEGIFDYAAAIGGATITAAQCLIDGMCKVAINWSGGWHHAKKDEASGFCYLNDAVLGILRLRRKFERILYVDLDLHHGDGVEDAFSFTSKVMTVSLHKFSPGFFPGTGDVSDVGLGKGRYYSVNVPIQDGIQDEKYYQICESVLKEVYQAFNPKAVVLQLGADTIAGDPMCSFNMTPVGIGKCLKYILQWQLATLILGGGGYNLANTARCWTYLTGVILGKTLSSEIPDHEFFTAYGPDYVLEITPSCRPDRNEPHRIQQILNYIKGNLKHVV
Description: (§1) Enzymatic activity assays for compound screening and dose–response analysis were performed as previously described. […] For dose–response curves, serial inhibitor dilutions were incubated with 40 nM HDAC1 (BPS Bioscience, San Diego, CA, USA), 1 nM HDAC4, or 10 nM HDAC8. […] All IC50 determinations were performed in triplicate, and the results are expressed as mean values ± standard deviation (SD). HDAC4 and HDAC8 were produced according to previously reported protocols. HDAC1 was purchased from BPS Bioscience (San Diego, CA, USA). Boc-Lys(Tfa)-AMC and trypsin were purchased from Bachem (Bubendorf, Switzerland) and AppliChem (Darmstadt, Germany), respectively.

[2] = biological target: T2, HDAC1 (Homo sapiens, UniProt Q13547); test: HDAC1 enzymatic activity assay (dose-response, Boc-Lys(Ac)-AMC); conditions: 40 nM HDAC1, 50 µM Boc-Lys(Ac)-AMC; triplicate, mean ± SD
T2 construct: purchased BPS Bioscience
Description: Enzymatic activity assays for compound screening and dose–response analysis were performed as previously described. In brief, compounds were screened at 35 µM using 1 nM HDAC4 and 10 nM HDAC8, respectively. For dose–response curves, serial inhibitor dilutions were incubated with 40 nM HDAC1 (BPS Bioscience, San Diego, CA, USA), 1 nM HDAC4, or 10 nM HDAC8. Reactions were initiated with 20 µM Boc-Lys(Tfa)-AMC (HDAC4/8) or 50 µM Boc-Lys(Ac)-AMC (HDAC1) and terminated with 0.4 mg/mL trypsin ([…]) and 1.7 µM SATFMK (HDAC4/8) or 4.2 µM SAHA (HDAC1). All IC50 determinations were performed in triplicate, and the results are expressed as mean values ± standard deviation (SD). HDAC4 and HDAC8 were produced according to previously reported protocols. HDAC1 was purchased from BPS Bioscience (San Diego, CA, USA). Boc-Lys(Tfa)-AMC and trypsin were purchased from Bachem (Bubendorf, Switzerland) and AppliChem (Darmstadt, Germany), respectively.

[3] = biological target: T3, HDAC4 (Homo sapiens, UniProt P56524); test: HDAC4 enzymatic activity assay (dose-response, Boc-Lys(Tfa)-AMC); conditions: 1 nM HDAC4, 20 µM Boc-Lys(Tfa)-AMC; triplicate, mean ± SD
T3 construct: made in house
Description: as §1

T3 sequence (P56524 whole entry): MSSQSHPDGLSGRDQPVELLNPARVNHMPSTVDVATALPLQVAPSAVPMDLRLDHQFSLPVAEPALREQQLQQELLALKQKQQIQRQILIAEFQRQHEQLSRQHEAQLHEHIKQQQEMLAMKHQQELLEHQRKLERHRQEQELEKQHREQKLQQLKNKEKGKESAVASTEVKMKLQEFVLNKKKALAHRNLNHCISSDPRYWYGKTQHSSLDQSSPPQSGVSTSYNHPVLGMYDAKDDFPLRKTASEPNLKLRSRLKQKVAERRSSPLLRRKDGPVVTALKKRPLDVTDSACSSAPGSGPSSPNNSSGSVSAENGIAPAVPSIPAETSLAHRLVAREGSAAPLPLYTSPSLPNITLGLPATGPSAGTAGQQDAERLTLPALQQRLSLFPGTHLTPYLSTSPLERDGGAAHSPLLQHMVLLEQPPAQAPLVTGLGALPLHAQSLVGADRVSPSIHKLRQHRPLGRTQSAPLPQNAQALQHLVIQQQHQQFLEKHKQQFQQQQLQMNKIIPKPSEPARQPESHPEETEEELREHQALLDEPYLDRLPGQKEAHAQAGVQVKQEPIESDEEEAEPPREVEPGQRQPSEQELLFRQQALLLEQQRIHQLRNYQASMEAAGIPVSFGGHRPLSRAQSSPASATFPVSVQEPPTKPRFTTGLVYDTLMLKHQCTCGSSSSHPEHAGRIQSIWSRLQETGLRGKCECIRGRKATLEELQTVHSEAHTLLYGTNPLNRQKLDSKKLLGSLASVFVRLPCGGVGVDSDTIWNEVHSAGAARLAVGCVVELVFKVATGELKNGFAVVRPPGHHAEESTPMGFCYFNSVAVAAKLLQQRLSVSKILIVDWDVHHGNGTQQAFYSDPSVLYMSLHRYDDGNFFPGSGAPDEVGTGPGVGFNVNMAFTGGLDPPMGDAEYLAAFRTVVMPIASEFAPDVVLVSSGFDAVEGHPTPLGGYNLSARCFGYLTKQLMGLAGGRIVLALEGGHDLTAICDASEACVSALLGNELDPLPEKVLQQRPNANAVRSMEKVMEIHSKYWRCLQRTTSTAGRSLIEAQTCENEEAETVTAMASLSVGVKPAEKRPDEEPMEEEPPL
T2 sequence (Q13547 whole entry): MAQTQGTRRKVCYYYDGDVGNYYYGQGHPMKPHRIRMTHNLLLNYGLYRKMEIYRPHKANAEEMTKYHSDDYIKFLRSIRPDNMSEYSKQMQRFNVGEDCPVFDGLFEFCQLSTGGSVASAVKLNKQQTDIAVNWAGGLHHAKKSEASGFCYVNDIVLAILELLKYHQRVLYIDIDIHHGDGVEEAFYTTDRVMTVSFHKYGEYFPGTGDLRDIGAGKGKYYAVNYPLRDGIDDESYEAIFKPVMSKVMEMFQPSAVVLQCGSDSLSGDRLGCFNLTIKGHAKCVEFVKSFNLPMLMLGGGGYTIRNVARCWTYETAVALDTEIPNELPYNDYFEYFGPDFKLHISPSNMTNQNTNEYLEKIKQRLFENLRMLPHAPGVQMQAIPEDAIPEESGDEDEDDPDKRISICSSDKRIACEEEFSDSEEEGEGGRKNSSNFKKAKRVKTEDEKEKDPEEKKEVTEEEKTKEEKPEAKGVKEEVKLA

IC50 [1]: > 35 µM | IC50 [2]: > 35 µM | IC50 [3]: > 35 µM
Compound: Nc1cc(F)ccc1NC(=O)c1cccc(C(=O)OCB2C=Cc3ccccc3N2)c1 [Compound 20]

IC50 [1]: 20 ± 3 µM | IC50 [2]: > 35 µM | IC50 [3]: 16.8 ± 1.6 µM
Compound: Nc1ccccc1NC(=O)c1cn(CB2C=Cc3ccccc3N2)nn1 [Compound 9]

IC50 [1]: 0.52 ± 0.11 µM | IC50 [2]: 8.2 ± 1.8 µM | IC50 [3]: > 35 µM
Compound: O=C(/C=C/c1ccc(C(=O)NO)cc1)OCB1C=Cc2ccccc2N1 [Compound 18]

IC50 [1]: 0.44 ± 0.07 µM | IC50 [2]: 1.88 ± 0.11 µM | IC50 [3]: 7.3 ± 1.7 µM
Compound: O=C(NO)c1cccc(C(=O)OCB2C=Cc3ccccc3N2)c1 [Compound 23]

IC50 [1]: > 35 µM | IC50 [2]: > 35 µM | IC50 [3]: > 35 µM
Compound: O=C(CCc1cn(CB2C=Cc3ccccc3N2)nn1)NO [Compound 11]

IC50 [1]: > 35 µM | IC50 [2]: 9.3 ± 2.3 µM | IC50 [3]: > 35 µM
Compound: O=C(CCCCCCNCB1C=Cc2ccccc2N1)NO [Compound 24]

IC50 [1]: > 35 µM | IC50 [2]: > 35 µM | IC50 [3]: > 35 µM
Compound: O=C(NO)c1cccc(CNCB2C=Cc3ccccc3N2)c1 [Compound 27]

IC50 [1]: > 35 µM | IC50 [2]: > 35 µM | IC50 [3]: > 35 µM
Compound: Nc1cc(F)ccc1NC(=O)c1ccc(CNCB2C=Cc3ccccc3N2)cc1 [Compound 26]

IC50 [1]: > 35 µM | IC50 [2]: > 35 µM | IC50 [3]: > 35 µM
Compound: Nc1ccccc1NC(=O)c1cccc(C(=O)OCB2C=Cc3ccccc3N2)c1 [Compound 21]

IC50 [1]: > 35 µM | IC50 [2]: > 35 µM | IC50 [3]: 17 ± 3 µM
Compound: O=C(NO)c1cccc(NCB2C=Cc3ccccc3N2)c1 [Compound 25]

IC50 [1]: 0.2 ± 0.02 µM | IC50 [2]: 0.975 ± 0.394 µM | IC50 [3]: 1.35 ± 0.18 µM
Compound: O=C(NO)c1cccc(B2Nc3ccccc3N2)c1 [Compound 30]

The remaining lines, values behind:

Compound: O=C(CCCCc1cn(CB2C=Cc3ccccc3N2)nn1)NO [Compound 12]
IC50 [1]: 6.2 ± 3.4 µM | IC50 [2]: > 35 µM | IC50 [3]: 13.8 ± 4.3 µM

Compound: Nc1ccccc1NC(=O)CCSCCC(=O)OCB1C=Cc2ccccc2N1 [Compound 22]
IC50 [1]: > 35 µM | IC50 [2]: > 35 µM | IC50 [3]: > 35 µM

Compound: Nc1cc(F)ccc1NC(=O)CCCCc1cn(CB2C=Cc3ccccc3N2)nn1 [Compound 15]
IC50 [1]: > 35 µM | IC50 [2]: > 35 µM | IC50 [3]: > 35 µM

Compound: Nc1ccccc1NC(=O)CCCc1cn(CB2C=Cc3ccccc3N2)nn1 [Compound 10]
IC50 [1]: 19 ± 5 µM | IC50 [2]: > 35 µM | IC50 [3]: 8.08 ± 1.59 µM

Compound: Nc1ccccc1NC(=O)CCCCCCC(=O)OCB1C=Cc2ccccc2N1 [Compound 17]
IC50 [1]: 15 ± 3 µM | IC50 [2]: 8.2 ± 2.5 µM | IC50 [3]: 16.5 ± 1 µM

Compound: O=C(NO)c1ccc(B2Nc3ccccc3N2)cc1 [Compound 35]
IC50 [1]: > 35 µM | IC50 [2]: > 35 µM | IC50 [3]: > 35 µM

Compound: Nc1cc(F)ccc1NC(=O)CCc1cn(CB2C=Cc3ccccc3N2)nn1 [Compound 14]
IC50 [1]: > 35 µM | IC50 [2]: > 35 µM | IC50 [3]: > 35 µM

Compound: O=C(CCCc1cn(CB2C=Cc3ccccc3N2)nn1)NO [Compound 13]
IC50 [1]: 3.3 ± 1.7 µM | IC50 [2]: > 35 µM | IC50 [3]: 23.1 ± 4.9 µM

Compound: O=C(CCCC(=O)OCB1C=Cc2ccccc2N1)NO [Compound 19]
IC50 [1]: > 35 µM | IC50 [2]: > 35 µM | IC50 [3]: > 35 µM

Compound: Nc1cc(F)ccc1NC(=O)c1cccc(B2Nc3ccccc3N2)c1 [Compound 32]
IC50 [1]: > 35 µM | IC50 [2]: > 35 µM | IC50 [3]: > 35 µM

Compound: Nc1ccccc1NC(=O)c1cccc(B2Nc3ccccc3N2)c1 [Compound 31]
IC50 [1]: > 35 µM | IC50 [2]: > 35 µM | IC50 [3]: > 35 µM

Compound: Nc1ccccc1NC(=O)CCCCc1cn(CB2C=Cc3ccccc3N2)nn1 [Compound 8]
IC50 [1]: > 35 µM | IC50 [2]: > 35 µM | IC50 [3]: > 35 µM

Compound: O=C(CCCCCCC(=O)OCB1C=Cc2ccccc2N1)NO [Compound 16d]
IC50 [1]: > 35 µM | IC50 [2]: > 35 µM | IC50 [3]: 14.7 ± 1.7 µM
